Marks after values point to notes of the source that are not given here.
Columns and labels:
COX–2 protein = settings: cited from earlier work
ovine recombinant COX–1 = biological target: T1, ovine recombinant COX–1 (Ovis aries, UniProt P05979); assay: cell-free COX–1 enzyme assay (PGE2 formation, LC-MS); format: biochemical; design: purchased Cayman Chemicals/ Biomol, Hamburg, Germany
T1 sequence (P05979 25-600): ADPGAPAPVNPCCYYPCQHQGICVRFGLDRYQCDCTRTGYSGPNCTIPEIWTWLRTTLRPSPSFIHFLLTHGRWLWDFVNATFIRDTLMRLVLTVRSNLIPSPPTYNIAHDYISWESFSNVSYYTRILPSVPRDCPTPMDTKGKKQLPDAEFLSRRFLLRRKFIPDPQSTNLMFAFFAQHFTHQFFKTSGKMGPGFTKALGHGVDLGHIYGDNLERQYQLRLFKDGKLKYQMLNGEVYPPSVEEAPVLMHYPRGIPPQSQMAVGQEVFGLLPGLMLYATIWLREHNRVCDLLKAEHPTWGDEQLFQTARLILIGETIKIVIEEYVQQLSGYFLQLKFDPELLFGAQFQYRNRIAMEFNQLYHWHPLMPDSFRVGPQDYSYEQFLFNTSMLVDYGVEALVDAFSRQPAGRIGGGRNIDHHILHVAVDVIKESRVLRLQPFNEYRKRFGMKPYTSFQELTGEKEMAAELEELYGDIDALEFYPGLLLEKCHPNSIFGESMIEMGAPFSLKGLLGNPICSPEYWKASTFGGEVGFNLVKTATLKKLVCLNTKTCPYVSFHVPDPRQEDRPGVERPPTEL

COX–2 [1] = biological target: T2, COX–2 (Homo sapiens, UniProt P35354); assay: cell-free COX–2 enzyme assay (PGE2 formation, LC-MS); format: biochemical
T2 sequence (P35354 18-604): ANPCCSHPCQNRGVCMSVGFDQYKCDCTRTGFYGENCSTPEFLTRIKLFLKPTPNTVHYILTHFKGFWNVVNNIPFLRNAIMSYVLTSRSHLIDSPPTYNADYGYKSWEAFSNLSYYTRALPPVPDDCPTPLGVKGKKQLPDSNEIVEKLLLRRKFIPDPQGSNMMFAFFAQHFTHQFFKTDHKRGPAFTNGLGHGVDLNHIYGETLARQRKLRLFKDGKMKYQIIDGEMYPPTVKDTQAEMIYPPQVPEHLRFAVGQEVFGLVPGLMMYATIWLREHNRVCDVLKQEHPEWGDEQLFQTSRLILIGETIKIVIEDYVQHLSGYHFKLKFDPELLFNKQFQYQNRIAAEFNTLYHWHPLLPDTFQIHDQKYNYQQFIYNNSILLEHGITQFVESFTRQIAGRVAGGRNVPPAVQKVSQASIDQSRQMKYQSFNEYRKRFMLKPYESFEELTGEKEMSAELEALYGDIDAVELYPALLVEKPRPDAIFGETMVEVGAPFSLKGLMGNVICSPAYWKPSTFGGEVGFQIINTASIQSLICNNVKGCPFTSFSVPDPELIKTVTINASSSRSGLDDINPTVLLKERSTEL
Protocol: (§1) The in vitro assays were performed as described [6, 16, 18] and COX metabolites were quantified by LC-MS [18].
(§2) Primary human monocytes were freshly isolated from human blood. Blood was collected from healthy human subjects after written informed consent was obtained. […] After 24 h, the supernatant was sampled for LC-MS and cells were collected for the COX–2 expression analysis by Western Blotting.
(§3) GraphPad Prism 5.0 (GraphPad Software, San Diego, USA) was used for data analysis, the fitting of dose response curves and calculation of the IC50 values. Statistical differences were determined by Dunnetts test (LPS vs. other groups).

COX–2 [2] = biological target: T2, COX–2; assay: PGE2 formation in LPS stimulated primary human monocytes (24 h, LC-MS); format: cell-based; settings: IC50 (95% CI), primary monocytes, LPS stimulated, calculated based on PGE2, n = 3, 24 h
Protocol: as §1, §2, §3

COX–2 [3] = biological target: T2, COX–2; assay: PGE2 formation in HCA–7 cells (24 h, LC-MS); format: cell-based
Protocol: as §1
HCA–7 cells were incubated with sub-cytotoxic concentrations of the polyphenols dissolved in Tris buffered DMEM medium. Cytotoxicity of the polyphenols was evaluated by the lactate dehydrogenase leakage test (Cyto-Tox-ONE, Promega Mannheim, Germany). After 24 h the supernatant was collected for LC-MS analysis and the cells were harvested to analyze the COX–2 expression by Western Blotting.
After 24 h, the supernatant was sampled for LC-MS and cells were collected for the COX–2 expression analysis by Western Blotting.
as §3

[4] = tested on: arachidonic acid (AA) cascade; assay: kidney tissue oxylipin/PG levels in LPS induced sepsis in mice; settings: kidney tissue 24 h after LPS treatment, LPS +, mean;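 also: male C57BL/6N mice challenged with LPS, kidney taken 24 h later, oxylipins quantified by LC-MS after solid-phase extraction of tissue homogenate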
[5] = calculated based on PGE2, n = 3

Structure (SMILES): O=c1c(-c2ccc(O)cc2)coc2cc(O)cc(O)c12 [Genistein, genistein]
- COX–2 (protein) levels, RAW 264.7 cells (COX–2 protein): reduced
- effect on COX–1 dependent PGE2 formation, cell-free enzyme assay (ovine recombinant COX–1): no effect
- IC50 (95% CI), COX–1 enzyme assay (ovine recombinant COX–1; [5]): no effect (up to 30 μM)
- effect on COX–2 dependent PGE2 formation, cell-free enzyme assay (COX–2 [1]): no effect
- IC50 (95% CI), COX–2 enzyme assay (COX–2 [1]; [5]): no effect (up to 30 μM)
- IC50 (COX–2 [2]): 7.4 µM
- inhibition at 100 µM (COX–2 [3]; HCA-7, 100 μM, read-out: inhibition, HCA-7 cell line): 54%
- changes of PGE2 formation in HCA–7 cells (COX–2 [3]; non-cytotoxic concentrations, 24 h): affected
- 1a,1b-dihomo-PGF2α [4]: 1.9 nM
- 4,5-DiHDPE [4]: 15 nM
- 4-HDHA [4]: 28^† nM
- 5(6)-EpETrE [4]: 140^† nM
- 5,6-DiHETrE [4]: 1.8^† nM
- 5-HEPE [4]: 1.3 nM
- 5-HETE [4]: 15^† nM
- 5-oxo-ETE [4]: 45 nM
- 6-keto-PGF1α [4]: 61 nM
- 7,8-DiHDPE [4]: 2.0^* nM
- 7-HDHA [4]: 4.0^* nM
- 8(9)-EpETrE [4]: 34^‡ nM
- 8,9-DiHETrE [4]: 1.9 nM
- 8-HDHA [4]: 23^‡ nM
- 8-HETE [4]: 4.9 nM
- 8-iPF2a [4]: 2.0 nM
- 9(10)-EpODE [4]: 14 nM
- 9(10)-EpOME [4]: 170^* nM
- 9(10)-Epoxystearic acid [4]: 75^* nM
- 9,10,13-TriHOME [4]: 4.3 nM
- 9,10-DiHODE [4]: 1.6 nM
- 9,10-DiHOME [4]: 31 nM
- 9,10-Dihydroxystearic acid [4]: 50 nM
- 9,12,13-TriHOME [4]: 24 nM
- 9-HETE [4]: 4.3^† nM
- 9-HODE [4]: 280 nM
- 9-HOTrE [4]: 5.0 nM
- 9-oxo-ODE [4]: 65 nM
- 10(11)-EpDPE [4]: 71^† nM
- 10,11-DiHDPE [4]: 2.4 nM
- 10-HDHA [4]: 4.3 nM
- 11(12)-EpETE [4]: 4.0 nM
- 11(12)-EpETrE [4]: 82^† nM
- 11,12-DiHETrE [4]: 2.8 nM
- 11-HDHA [4]: 7.7^† nM
- 11-HETE [4]: 18 nM
- 12(13)-EpODE [4]: 8.1^* nM
- 12(13)-EpOME [4]: 120^* nM
- 12,13-DiHOME [4]: 78 nM
- 12-HEPE [4]: 2.2 nM
- 12-HETE [4]: 21 nM
- 13(14)-EpDPE [4]: 56^† nM
- 13,14-DiHDPE [4]: 5.0 nM
- 13,14-dihydro-15-keto-PGF2α [4]: 3.1 nM
- 13-HDHA [4]: 9.1^* nM
- 13-HODE [4]: 230 nM
- 13-HOTrE [4]: 6.0 nM
- 13-oxo-ODE [4]: 11 nM
- 14(15)-EpETE [4]: 4.7^† nM
- 14(15)-EpETrE [4]: 57^* nM
- 14,15-DiHETE [4]: 1.1 nM
- 14,15-DiHETrE [4]: 8.5 nM
- 14-HDHA [4]: 14 nM
- 15(16)-EpODE [4]: 56^† nM
- 15(S)-HETrE [4]: 6.4 nM
- 15,16-DiHODE [4]: 26 nM
- 15-HETE [4]: 31^* nM
- 15-oxo-ETE [4]: 12^* nM
- 16(17)-EpDPE [4]: 52^† nM
- 16,17-DiHDPE [4]: 15 nM
- 16-HDHA [4]: 9.1 nM
- 17(18)-EpETE [4]: 5.7^† nM
- 17,18-DiHETE [4]: 4.4 nM
- 17-HDHA [4]: 22 nM
- 18-HEPE [4]: 2.0^* nM
- 19(20)-EpDPE [4]: 88^† nM
- 19,20-DiHDPE [4]: 100 nM
- 20-HDHA [4]: 25^* nM
- 20-HEPE [4]: 5.9 nM
- EKODE [4]: 58 nM
- PGD2 [4]: 9.6 nM
- PGE1 [4]: 6.3 nM
- PGE2 [4]: 110 nM
- PGF1α [4]: 3.7 nM
- PGF2α [4]: 40 nM
- TXB2 [4]: 3.2^* nM
- 5,6-DiHETE ([4]; < = below LOQ): < 0.25 nM
- 5-iPF2α ([4]; < = below LOQ): < 1.0 nM
- 8(9)-EpETE ([4]; < = below LOQ): 2.8^† nM
- 12,13-DiHODE ([4]; < = below LOQ): < 2.0 nM
- 13,14-dihydro-15-keto-PGE1 ([4]; < = below LOQ): 0.5 nM
- 20-HETE ([4]; < = below LOQ): < 2.7 nM
- PGD1 ([4]; < = below LOQ): < 0.50 nM
- PGF2α ([4]; second listing of PGF2α (r9)): 40 nM

Source: PMC4594923, “Food Polyphenols Fail to Cause a Biologically Relevant Reduction of COX-2 Activity” (PLoS ONE, 2015)
